The results in this text go back to patent US12390461B2, “Modulators of RAR-related orphan receptors (RORs)” (11949098 CANADA INC., priority 2018, dated 2025).

Structures are written as SMILES.

This experiment relates to Th17 polarization of human peripheral blood mononuclear cells. The experiment can be described thus: Th17 polarization assay (IL-17A positive cells by flow cytometry). The note with it: PBMC, 10 nM compound, 48 hours, triplicates, average of 50% over the listed compounds, p<0.05, read-out: inhibition of the polarization of Th17 cells (percentage of IL17A positive cells relative to total CD4 T cells). The class given is cell-based. From the text: This assay measures the phenotypic effects of the compounds on the production of interleukin 17A (IL-17A). IL-17A genes are regulated by ROR response elements (ROREs). Compounds that bind to ROR (LBD) can inhibit the binding of RORγ to ROREs DNA site. Compounds can also reduce the effect of the binding which is enhanced by the binding of the co-activator protein.
Peripheral blood mononuclear cells were isolated by density gradient centrifugation. The principle of this method is that components of the blood have different densities and can be separated according to their relative density. […] This medium is denser than lymphocytes, monocytes, and platelets and they remain about it, but less dense than granulocytes and erythrocytes, which will drop below it. […] Four layers were form, each containing different cell types—the uppermost layer contain containing plasma was removed by pipetting. PBMCs layer and is a characteristically white and cloudy “blanket” was gently removed using a 10 ml pipette and added to warm medium or PBS (1:3) to wash off any remaining platelets and centrifuged at 400×g for 10 minutes. The pelleted cells were counted, and the percentage viability estimated using Trypan blue staining. Cells were frozen for long-term storage.
To preserve PBMCs at ultra-low temperatures in liquid nitrogen, dimethyl sulfoxide (DMSO) was used as a cryoprotectant to reduce the formation of ice crystals and prevent cell damage. To freeze, freshly isolated PBMCs are resuspended to 5×10^6 cells/mL in freezing medium containing 10% DMSO and 90% fetal bovine serum (FBS) and were placed inside a freezing container at −80° C. overnight to allow gradual and even cooling. The following day, samples were moved to a liquid nitrogen tank for long-term storage.
500 ml bottle of RPMI at 4° C. was opened in a biological safety cabinet. Half of the media was transferred to a 500 ml 0.22 um bottle top filter (with the vacuum turned off). 59 ml filtered heat inactivated fetal bovine serum (FBS), 6 ml penicillin-streptomycin solution (100×), 6.0 ml of L-glutamine (100×), 6.0 ml MEM non-essential amino acids 100×, 6.0 ml of sodium pyruvate were added and the volume was brought up to 500 ml by adding the RPMI. Culture media were stored in 4° C. and used for duration of two weeks.
PBMCs were thawed carefully to avoid loss of cell viability and functionality. Samples are removed from liquid nitrogen and placed on ice, after which they were thawed in a 37° C. water bath. Once there is a small crystal of ice left in the bottom on the tubes, 500 μL warm complete RPMI medium supplemented with 10% FBS, 1% penicillin-streptomycin, and L-glutamine was added dropwise. The cells were then transferred to Falcon tubes containing 10 mL warm medium and centrifuged for 10 minutes at 400×g to wash off the toxic DMSO. This wash step was repeated, and the cell pellet was then resuspended in medium to count as before. Once thawed, PBMCs was rested overnight to remove any apoptotic cell this increases viability and improves functionality and involves incubating the freshly thawed PBMCs in supplemented medium for approximately 18 hours. After this resting period, cells were washed to be used in culture.
Culture medium was changed every other day for the whole duration. Compounds were added to the polarized cells at day 12 for 48 hours. At measurement day, CD3/CD28 beads were removed and cells were treated with cell stimulation cocktail for 5 hours at the end of 48 hours incubation. Plates were centrifuged at 400×g for 10 minutes. Supernatant was collected for further testing and cells were resuspended in 1×PBS and washed twice at 400×g before staining for surface and intracellular markers.
The dye was used in 1:1000 concentration in 1×PBS. The cells were incubated in dye solution for 30 minutes in 4° C.
A general note: A flow cytometer gives signals particle by particle.
`CSc1ncc(Cl)c(C(=O)Nc2sc3c(c2C(=O)NCc2ccccc2)CCCC3)n1` [Compound 2, N-(3-(benzylcarbamoyl)-4,5,6,7-tetrahydrobenzo[b]thiophen-2-yl)-5-chloro-2-(methylthio)pyrimidine-4-carboxamide]: the inhibition at 0.01 µM fell in the range of 30 to 70%. With `CSc1ncc(Cl)c(C(=O)Nc2sc3c(c2C(=O)NC2CCS(=O)(=O)C2)CCC(C)C3)n1` (stereo not drawn) [Compound 3, 5-chloro-N-(3-{[(1,1-dioxidotetrahydro-3-thienyl)amino]-carbonyl}-6-methyl-4,5,6,7-tetrahydro-1-benzothien-2-yl)-2-(methylthio)-4-pyrimidine-carboxamide] the figure was 30 to 70%; with `CCC1CCc2c(sc(NC(=O)c3ccnn3C)c2C(=O)Nc2ccccc2C)C1` (stereo not drawn) [Compound 4, N-(6-ethyl-3-{[(2-methylphenyl)amino]carbonyl}-4,5,6,7-tetrahydro-1-benzothien-2-yl)-1-methyl-1H-pyrazole-5-carboxamide], 30 to 70%; with `CN1CCN(C(=O)c2c(NC(=O)c3ccccc3F)sc3c2CCC(C(C)(C)C)C3)CC1` (stereo not drawn) [Compound 5, N-{6-tert-butyl-3-[(4-methyl-1-piperazinyl)carbonyl]-4,5,6,7-tetrahydro-1-benzothien-2-yl}-2-fluorobenzamide], 30 to 70%. With `CC1CCc2c(sc(NC(=O)c3ccccc3F)c2C(=O)N2CCN(C)CC2)C1` (stereo not drawn) [Compound 6, 2-fluoro-N-{6-methyl-3-[(4-methyl-1-piperazinyl)carbonyl]-4,5,6,7-tetrahydro-1-benzothien-2-yl}benzamide] the figure was 30 to 70%.

Take `O=C(NCc1ccccc1)c1c(NC(=O)C(F)(F)F)sc2c1CCCC2` [Compound 7, N-benzyl-2-[(trifluoroacetyl)amino]-4,5,6,7-tetrahydro-1-benzothiophene-3-carboxamide]: the inhibition at 0.01 µM lay within 30 to 70%. Under `Cc1ccnc(SCC(=O)Nc2sc3c(c2C(=O)NCc2ccccc2)CCCC3)n1` [Compound 8, N-benzyl-2-({[(4-methyl-2-pyrimidinyl)thio]acetyl}amino)-4,5,6,7-tetrahydro-1-benzothiophene-3-carboxamide] stands 30 to 70%; under `O=C(CN1CCCCC1)Nc1sc2c(c1C(=O)NCc1ccccc1)CCCC2` [Compound 9, N-benzyl-2-[(1-piperidinylacetyl)amino]-4,5,6,7-tetrahydro-1-benzothiophene-3-carboxamide], 30 to 70%; under `CN1CCN(CC(=O)Nc2sc3c(c2C(=O)NCc2ccccc2)CCCC3)CC1` [Compound 10, N-benzyl-2-{[(4-methyl-1-piperazinyl)acetyl]amino}-4,5,6,7-tetrahydro-1-benzothiophene-3-carboxamide], 30 to 70%. As to `CC1CCN(CC(=O)Nc2sc3c(c2C(=O)NCc2ccccc2)CCCC3)CC1` [Compound 11, N-benzyl-2-{[(4-methyl-1-piperidinyl)acetyl]amino}-4,5,6,7-tetrahydro-1-benzothiophene-3-carboxamide], the inhibition at 0.01 µM lay in the range of 30 to 70%. Under `CC1CCCN1C(=O)c1c(NC(=O)c2cccnc2)sc2c1CCCC2` (stereo not drawn) [Compound 12, N-(3-(2-methylpyrrolidine-1-carbonyl)-4,5,6,7-tetrahydro-benzo[b]thiophen-2-yl)nicotinamide] stands 30 to 70%; under `C[C@@H]1CCN(C(=O)c2c(NC(=O)c3cccnc3)sc3c2CCCC3)[C@H](C)C1` [Compound 13, N-(3-((2R,4R)-2,4-dimethylpiperidine-1-carbonyl)-4,5,6,7-tetrahydrobenzo[b]thiophen-2-yl)nicotinamide], 30 to 70%. With `CCC1CCN(C(=O)c2c(NC(=O)c3cccnc3)sc3c2CCCC3)C1` (stereo not drawn) [Compound 15, N-(3-(3-ethylpyrrolidine-1-carbonyl)-4,5,6,7-tetrahydro-benzo[b]thiophen-2-yl)nicotinamide] the figure was 30 to 70%. `Cn1ccnc1SCC(=O)Nc1sc2c(c1C(=O)NCc1ccccc1)CCCC2` [Compound 16, N-benzyl-2-(2-((1-methyl-1H-imidazol-2-yl)thio)acetamido)-4,5,6,7-tetrahydrobenzo[b]thiophene-3-carboxamide]: the inhibition at 0.01 µM is 30 to 70%. Under `Cn1cnc(CNC(=O)c2c(NC(=O)c3cccnc3)sc3c2CCCC3)n1` [Compound 19, N-(3-(((1-methyl-1H-1,2,4-triazol-3-yl)methyl)carbamoyl)-4,5,6,7-tetrahydrobenzo[b]thiophen-2-yl)nicotinamide] stands 30 to 70%; under `C[C@@H](C#N)NC(=O)c1c(NC(=O)c2cccnc2)sc2c1CCCC2` [Compound 20, (S)—N-(3-((1-cyanoethyl)carbamoyl)-4,5,6,7-tetrahydro-benzo[b]thiophen-2-yl)nicotinamide], 30 to 70%. With `O=C(Nc1sc2c(c1C(=O)c1ccccc1)CCCC2)c1cnccn1` [Compound 22, N-(3-benzoyl-4,5,6,7-tetrahydrobenzo[b]thiophen-2-yl)pyrazine-2-carboxamide] the figure was 30 to 70%; with `Cc1cnc(S(C)(=O)=O)nc1C(=O)Nc1sc2c(c1C(=O)c1ccccc1)CCCC2` [Compound 23, N-(3-benzoyl-4,5,6,7-tetrahydrobenzo[b]thiophen-2-yl)-5-methyl-2-(methylsulfonyl)pyrimidine-4-carboxamide], 30 to 70%.

As usually defined, the inhibition is the change of the read-out against control, counted positive when it falls.
